Data published in patent publication US20240252677A1, “ONE-COMPONENT DELIVERY SYSTEM FOR NUCLEIC ACIDS” (The Trustees of the University of Pennsylvania, priority 2021, published 2024).
Read-outs that look alike come from different tables or passages of the source.

Columns and labels:
[1] = test system: HEK293T cells; experiment: In vitro Luc-mRNA transfection, luciferase luminescence expression in HEK293T cells; type: cell-based, human; set-up: unit not given here; settings: HEK293T cells, Luc-mRNA 125 ng/well, n=3
How it was run: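 HEK293T cells were transfected with nucleoside-modified firefly luciferase mRNA at 125 ng/well delivered in the test particles. TransIT and MC3-based LNPs at equal mRNA dose served as comparators. After 24 h (18-20 h in some runs) at 37° C the cells were lysed, and luciferase luminescence was read on a luminometer, in triplicate.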

[2] = test system: HEK293T cells; settings: Table 16, IAJDs marked a (Zhang et al., J. Am. Chem. Soc. 2021); HEK 293T cells, 125 ng/well, n=3; cited from earlier work
[3] = pKa measurements of individual IAJD molecules by titration; type: physicochemical; settings: ethanol saturated with NaCl, titrated with 0.1 M aqueous HCl; Table 15; individual IAJD molecule, titration
How it was run: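 Compound dissolved at 1.5 mg/mL in NaCl-saturated ethanol and titrated with 0.1 M HCl in 7.5 μL steps, pH read by electrode after each addition. pKa taken from the half-equivalence point.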

[4] = test system: BALB/c mice; settings: cited from earlier work
[5] = Table 16, IAJDs marked a (Zhang et al., J. Am. Chem. Soc. 2021); IAJD 4 mg/mL, Luc-mRNA 0.10 mg/mL, acetate buffer 10 mM pH 4.0; cited from earlier work
[6] = Table 18, symmetric IAJDs, results available in the literature
[7] = Table 20, corresponding symmetric IAJDs (literature per Table 18)

Row | SMILES | pKa [3] | Luminescence [1] | Luminescence [2] | In vivo activity (total flux, p/s) [4, 6] | In vivo activity (total flux, p/s) [4, 7] | PDI [5] | Size (d, nm) [5]
1 | CCCCCCCCCCCCOc1cc(COC(=O)CCCN2CCN(CCO)CC2)cc(OCCCCCCCCCCCC)c1 [IAJD 71, 3,5-Bis(dodecyloxy)benzyl 4-(4-(2-hydroxyethyl)piperazin-1-yl)butanoate] | 6.38 | 473,548 | 473,548 | 3.79 × 10^7 p/s | 3.79 × 10^7 p/s | 0.451 | 237 nm
2 | CCCCCCCCCCCCCCCCCCOc1cc(COC(=O)CCCN2CCN(C)CC2)cc(OCCCCCCCCCCC)c1 [IAJD 81, 3-(Octadecyloxy)-5-(undecyloxy)benzyl 4-(4-methylpiperazin-1-yl)butanoate] | 6.19 | 206,161 | 206,161 |  |  | 0.287 | 111 nm
3 | CCCCCCCCCCCCCCCCOc1cc(COC(=O)CCCN2CCN(C)CC2)cc(OCCCCCCCCCCC)c1 [IAJD 86, 3-(Hexadecyloxy)-5-(undecyloxy)benzyl 4-(4-methylpiperazin-1-yl)butanoate] | 6.24 | 47,066 | 47,066 |  |  | 0.234 | 91 nm
4 | CCCCCCCCOc1cc(COC(=O)CCCN2CCN(C)CC2)cc(OCCCCCCCC)c1 [IAJD 88, 3,5-Bis(octyloxy)benzyl 4-(4-methylpiperazin-1-yl)butanoate] | 6.28 | 17 |  | 2.34 × 10^6 p/s |  |  | 
5 | CCCCCCCCCCOc1cc(COC(=O)CCCN2CCN(CCO)CC2)cc(OCCCCCCCCCC)c1 [IAJD 91, 3,5-Bis(decyloxy)benzyl 4-(4-(2-hydroxyethyl)piperazin-1-yl)butanoate] | 6.48 | 65,255 |  | 9.94 × 10^6 p/s |  |  | 
6 | CCCCCCCCCCCCCCOc1cc(COC(=O)CCCN2CCN(C)CC2)cc(OCCCCCCCCCCC)c1 [IAJD 105, 3-(Tetradecyloxy)-5-(undecyloxy)benzyl 4-(4-methylpiperazin-1-yl)butanoate] | 6.5 | 85 | 85 |  |  | 0.294 | 94 nm

Continued, in another order:

Row | pKa [3] | SMILES | Luminescence [1] | Luminescence [2] | In vivo activity (total flux, p/s) [4, 6] | In vivo activity (total flux, p/s) [4, 7] | PDI [5] | Size (d, nm) [5]
7 | 6.45 | CCCCCCCCOc1cc(COC(=O)CCCN2CCN(CCO)CC2)cc(OCCCCCCCC)c1 [IAJD 89] | 55 |  | 5.92 × 10^7 p/s |  |  | 
8 | 6.25 | CCCCCCCCCCCCCCCCCCOc1cc(COC(=O)CCCN2CCN(C)CC2)cc(OCCCCCCCCCCCCCCCCCC)c1 [IAJD 98, 3,5-Bis(octadecyloxy)benzyl 4-(4-methylpiperazin-1-yl)butanoate] | 22,209 |  | 2.06 × 10^6 p/s | 2.06 × 10^6 p/s |  | 
9 | 6.31 | CCCCCCCCCCCCCCCCCCOc1cc(COC(=O)CCCN2CCN(CCO)CC2)cc(OCCCCCCCCCCCCCCCCCC)c1 [IAJD 99, 3,5-Bis(octadecyloxy)benzyl 4-(4-(2-hydroxyethyl)piperazin-1-yl)butanoate] | 87,433 |  | 4.49 × 10^6 p/s | 4.49 × 10^6 p/s |  | 
10 | 6.38 | CCCCCCCCCCCCCCCCOc1cc(COC(=O)CCCN2CCN(C)CC2)cc(OCCCCCCCCCCCC)c1 [IAJD 106, 3-(Dodecyloxy)-5-(hexadecyloxy)benzyl 4-(4-methylpiperazin-1-yl)butanoate] | 309 | 309 |  |  | 0.275 | 105 nm
11 | 6.42 | CCCCCCCCCCCCCCCCCCOc1cc(COC(=O)CCCN2CCN(C)CC2)cc(OCCCCCCCCCCCC)c1 [IAJD 107, 3-(Dodecyloxy)-5-(octadecyloxy)benzyl 4-(4-methylpiperazin-1-yl)butanoate] | 93,745 | 93,745 |  |  | 0.279 | 146 nm
